{"source": "patent US8263762B2", "about": "“Alkoxy-carbonyl-amino-alkynyl-adenosine compounds and derivatives thereof as A2AR agonists” (Dogwood Pharmaceuticals, Inc., priority 2009, dated 2012)", "test_system": "Japanese white rabbits", "assay": "Test for intraocular pressure reduction using Japanese white rabbits", "type": "in vivo", "procedure": "(1) Test for intraocular pressure reduction using Japanese white rabbits: In order to examine the usefulness of the present compound as a preventive or therapeutic agent for glaucoma or ocular hypertension, an intraocular pressure lowering effect when the present compound was administered to Japanese white rabbits (sex: male) was evaluated and studied. As the test compound, Compound A was used. […]\nAdministration method and measurement method: Just before any of the test liquids was administered, one drop of 0.4% oxybuprocaine hydrochloride eye drop was instilled into both eyes of each experimental animal to achieve local anesthesia, and the intraocular pressure was measured using an applanation tonometer. This intraocular pressure was determined as an initial intraocular pressure. […]\nAfter the test liquid was administered, the intraocular pressure of both eyes of each experimental animal was measured at predetermined times (at 1, 2, 4 and 6 hours after administration). […]\nCalculation of intraocular pressure reduction degree: The intraocular pressure reduction degree of each test compound administration group at each measurement time was calculated from the following calculation formula. Among the obtained intraocular pressure reduction degrees at respective measurement times, the maximum value was determined as a maximum intraocular pressure reduction degree. […]"}
{"compound": "COC(=O)N(C)CC#Cc1nc(N)c2ncn([C@@H]3O[C@H](C(=O)NC4CC4)C(O)C3O)c2n1", "note": "(some centres unmarked) [Compound A]", "values": [{"measurement": "intraocular pressure lowering action", "setting": "Japanese white rabbits, eye drop", "result": "exhibited an intraocular pressure lowering action"}, {"measurement": "Maximum intraocular pressure reduction degree", "setting": "male Japanese white rabbits, 0.01% (w/v) eye drop, single dose into one eye, maximum of 1, 2, 4 and 6 hours, average of 5 cases", "result": 3.9, "unit": "mmHg"}]}
